Entries after “also recorded” stand apart in the source; their conditions may differ.
Legend:
Format in all cases: biochemical
PTP-β = PTP-β (Homo sapiens, UniProt P23467); assay: Colorimetric PTP-β assay using p-NPP as substrate; conditions: 5 µM compound; 1 mM p-NPP as substrate
Cdc25a = molecular target: T1, Cdc25a (Homo sapiens, UniProt P30304); assay: OMFP phosphatase assay, Cdc25a; conditions: for Mode of inhibition of Cdc25a: Michaelis-Menten kinetics, varying inhibitor concentrations; for Reversibility of inhibition of Cdc25a: dilution method: pre-incubation at 4 times IC50, 10-fold dilution
T1 sequence (P30304 376-482 limits assumed): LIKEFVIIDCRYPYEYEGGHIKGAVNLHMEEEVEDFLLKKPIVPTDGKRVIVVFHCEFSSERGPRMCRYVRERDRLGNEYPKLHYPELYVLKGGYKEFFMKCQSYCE

Cdc25b = molecular target: T2, Cdc25b (Homo sapiens, UniProt P30305); assay: OMFP phosphatase assay, Cdc25b; conditions: for Mode of inhibition of Cdc25b: Michaelis-Menten kinetics, varying inhibitor concentrations; for Reversibility of inhibition of Cdc25b: dilution method: pre-incubation at 4 times IC50, 10-fold dilution
T2 sequence (P30305 431-538 limits assumed): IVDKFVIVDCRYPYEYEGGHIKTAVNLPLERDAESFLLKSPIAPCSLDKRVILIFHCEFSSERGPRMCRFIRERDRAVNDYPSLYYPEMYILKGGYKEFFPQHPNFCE

Cdc25c = molecular target: T3, Cdc25c (Homo sapiens, UniProt P30307); assay: OMFP phosphatase assay, Cdc25c
T3 sequence (P30307 321-428 limits assumed): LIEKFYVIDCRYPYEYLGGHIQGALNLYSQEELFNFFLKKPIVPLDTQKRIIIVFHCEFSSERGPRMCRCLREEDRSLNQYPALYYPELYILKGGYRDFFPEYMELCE

PTP-β, sequence (P23467 1703-1963 limits assumed): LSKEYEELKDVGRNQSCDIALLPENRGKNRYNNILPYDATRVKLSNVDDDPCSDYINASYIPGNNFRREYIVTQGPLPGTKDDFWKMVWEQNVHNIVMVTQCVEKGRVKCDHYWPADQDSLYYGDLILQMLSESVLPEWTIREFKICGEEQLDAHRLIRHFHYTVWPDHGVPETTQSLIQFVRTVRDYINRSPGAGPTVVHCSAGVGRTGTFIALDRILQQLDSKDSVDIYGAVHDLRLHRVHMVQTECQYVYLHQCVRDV

Row | Compound | Inhibition of PTP-β (PTP-β) | Mode of inhibition of Cdc25a (Cdc25a; OMFP) | Potency relative to 13778 for Cdc25a (fold lower) (Cdc25a; OMFP) | Reversibility of inhibition of Cdc25a (Cdc25a) | Mode of inhibition of Cdc25b (Cdc25b; OMFP) | Potency relative to 13778 for Cdc25b (fold lower) (Cdc25b; OMFP) | Reversibility of inhibition of Cdc25b (Cdc25b) | Effect on activity of Cdc25c (Cdc25c; at the concentrations tested) | Effect on activity of Cdc25c (Cdc25c; 10 µM compound)
1 | O=C(O)CCc1ccc[c]([Sb](=[O])([OH])[OH])c1 [Compound P6949, 3-(3-stibonophenyl)propanoic acid] | almost completely inhibiting phosphatase activity | partial mixed-type mode of inhibition | ~ 30 fold | reversible | partial mixed-type mode of inhibition | ~ 10 fold | reversible | not affected | –
2 | O=C(O)/C=C/c1ccc[c]([Sb](=[O])([OH])[OH])c1 [Compound 13778, (E)-3-(3-stibonophenyl)acrylic acid] | almost completely inhibiting phosphatase activity | partial mixed-type mode of inhibition | – | reversible | partial mixed-type mode of inhibition | – | reversible | – | not substantially affected
3 | [O]=[Sb]([OH])([OH])[c]1ccccc1 [Compound 13744] | does not show any inhibitory effect; also recorded: No inhibition | – | – | – | – | – | – | – | –
